# Source: patent publication US20230085307A1, “PYRIDAZINONE COMPOUND AND HERBICIDE” (NISSAN CHEMICAL CORPORATION, priority 2019, published 2023)
# What was measured:
# lambsquarters [1] = experiment: Test Example 4: herbicidal effect by soil treatment (Table 19, symbol O); assay type: in vivo, lambsquarters (Chenopodium album); conditions: amount of applied herbicide 320 g/ha
# In short: (§1)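 Emulsion of test compound, water-diluted to predetermined amount, sprayed on soil after sowing (seed depth ~1.5 cm, sterilized diluvial soil). Greenhouse, 25–30° C. Effect graded at three weeks post-spray.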
# chickweed = experiment: Test Example 4: herbicidal effect by soil treatment (Table 19, symbol P); assay type: in vivo, common chickweed (Stellaria media); conditions: amount of applied herbicide 320 g/ha
# In short: as §1
# persian speedwell [2] = experiment: Test Example 4: herbicidal effect by soil treatment (Table 19, symbol R); assay type: in vivo, Persian speedwell (Veronica persica); conditions: amount of applied herbicide 320 g/ha
# In short: as §1
# southern crabgrass [3] = experiment: Test Example 4: herbicidal effect by soil treatment (Table 19, symbol F); assay type: in vivo, southern crabgrass (Digitaria ciliaris); conditions: amount of applied herbicide 320 g/ha
# In short: as §1
# green foxtail [4] = experiment: Test Example 5: herbicidal effect by foliage application, plastic box (Table 20, symbol G); assay type: in vivo, green foxtail (Setaria viridis); conditions: foliage application, 320 g/ha, three weeks after application
# In short: (§2)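 Post-emergence foliar test in sterilized diluvial soil. Compound applied as water-diluted emulsion at a predetermined rate to 14-day-old plants; evaluation at three weeks.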
# windgrass [5] = experiment: Test Example 4: herbicidal effect by soil treatment (Table 19, symbol L); assay type: in vivo, windgrass (Apera spica-venti); conditions: amount of applied herbicide 320 g/ha
# In short: as §1
# rice flat sedge = experiment: Test Example 3: herbicidal effect by foliage application, Wagner pot (Table 18, symbol E); assay type: in vivo, rice flat sedge (Cyperus iria); conditions: 320 g/ha
# In short: (§3)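 Plants were sown in alluvial soil held under 0.1–0.5 cm standing water and grown 14 days in a greenhouse at 25–30 °C. An emulsifiable formulation, water-diluted to the set dose, was then sprayed onto the foliage, and effects were scored three weeks later using previously defined criteria.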
# Italian ryegrass [6] = experiment: Test Example 5: herbicidal effect by foliage application, plastic box (Table 20, symbol K); assay type: in vivo, Italian ryegrass (Lolium multiflorum); conditions: foliage application, 320 g/ha, three weeks after application
# In short: as §2
# lambsquarters [7] = experiment: Test Example 5: herbicidal effect by foliage application, plastic box (Table 20, symbol O); assay type: in vivo, lambsquarters (Chenopodium album); conditions: foliage application, 320 g/ha, three weeks after application
# In short: as §2
# wild oat [8] = experiment: Test Example 4: herbicidal effect by soil treatment (Table 19, symbol I); assay type: in vivo, wild oat (Avena fatua); conditions: amount of applied herbicide 320 g/ha
# In short: as §1
# false cleavers [9] = experiment: Test Example 4: herbicidal effect by soil treatment (Table 19, symbol Q); assay type: in vivo, false cleavers (Galium spurium); conditions: amount of applied herbicide 320 g/ha
# In short: as §1
# Chinese sprangletop = experiment: Test Example 3: herbicidal effect by foliage application, Wagner pot (Table 18, symbol D); assay type: in vivo, chinese sprangletop (Leptochloa chinensis); conditions: 320 g/ha
# In short: as §3
# wild oat [10] = experiment: Test Example 5: herbicidal effect by foliage application, plastic box (Table 20, symbol I); assay type: in vivo, wild oat (Avena fatua); conditions: foliage application, 320 g/ha, three weeks after application
# In short: as §2
# redroot pigweed = experiment: Test Example 4: herbicidal effect by soil treatment (Table 19, symbol N); assay type: in vivo, redroot pigweed (Amaranthus retroflexus); conditions: amount of applied herbicide 320 g/ha
# In short: as §1
# false cleavers [11] = experiment: Test Example 5: herbicidal effect by foliage application, plastic box (Table 20, symbol Q); assay type: in vivo, false cleavers (Galium spurium); conditions: foliage application, 320 g/ha, three weeks after application
# In short: as §2
# persian speedwell [12] = experiment: Test Example 5: herbicidal effect by foliage application, plastic box (Table 20, symbol R); assay type: in vivo, Persian speedwell (Veronica persica); conditions: foliage application, 320 g/ha, three weeks after application
# In short: as §2
# blackgrass [13] = experiment: Test Example 5: herbicidal effect by foliage application, plastic box (Table 20, symbol J); assay type: in vivo, blackgrass (Alopecurus myosuroides); conditions: foliage application, 320 g/ha, three weeks after application
# In short: as §2
# velvetleaf [14] = experiment: Test Example 4: herbicidal effect by soil treatment (Table 19, symbol M); assay type: in vivo, velvetleaf (Abutilon theophrasti); conditions: amount of applied herbicide 320 g/ha
# In short: as §1
# blackgrass [15] = experiment: Test Example 4: herbicidal effect by soil treatment (Table 19, symbol J); assay type: in vivo, blackgrass (Alopecurus myosuroides); conditions: amount of applied herbicide 320 g/ha
# In short: as §1
# barnyard grass [16] = experiment: Test Example 4: herbicidal effect by soil treatment (Table 19, symbol H); assay type: in vivo, barnyard grass (Echinochloa crus-galli); conditions: amount of applied herbicide 320 g/ha
# In short: as §1
# Italian ryegrass [17] = experiment: Test Example 4: herbicidal effect by soil treatment (Table 19, symbol K); assay type: in vivo, Italian ryegrass (Lolium multiflorum); conditions: amount of applied herbicide 320 g/ha
# In short: as §1
# windgrass [18] = experiment: Test Example 5: herbicidal effect by foliage application, plastic box (Table 20, symbol L); assay type: in vivo, windgrass (Apera spica-venti); conditions: foliage application, 320 g/ha, three weeks after application
# In short: as §2
# green foxtail [19] = experiment: Test Example 4: herbicidal effect by soil treatment (Table 19, symbol G); assay type: in vivo, green foxtail (Setaria viridis); conditions: amount of applied herbicide 320 g/ha
# In short: as §1
# southern crabgrass [20] = experiment: Test Example 5: herbicidal effect by foliage application, plastic box (Table 20, symbol F); assay type: in vivo, southern crabgrass (Digitaria ciliaris); conditions: foliage application, 320 g/ha, three weeks after application
# In short: as §2
# velvetleaf [21] = experiment: Test Example 5: herbicidal effect by foliage application, plastic box (Table 20, symbol M); assay type: in vivo, velvetleaf (Abutilon theophrasti); conditions: foliage application, 320 g/ha, three weeks after application
# In short: as §2
# barnyard grass [22] = experiment: Test Example 3: herbicidal effect by foliage application, Wagner pot (Table 18, symbol H); assay type: in vivo, barnyard grass (Echinochloa crus-galli); conditions: 320 g/ha
# In short: as §3
# barnyard grass [23] = experiment: Test Example 5: herbicidal effect by foliage application, plastic box (Table 20, symbol H); assay type: in vivo, barnyard grass (Echinochloa crus-galli); conditions: foliage application, 320 g/ha, three weeks after application
# In short: as §2
smiles,measurement,setting,value
COc1cc2sc(-c3ccc(F)cc3OC)c(-c3c(O)c(C)nn(C)c3=O)c2cc1OC [5-060],"O: lambsquarters, herbicidal effect grade",lambsquarters [1],0 (Herbicidal rate of 5% or less (almost no effect))
same,"P: chickweed, herbicidal effect grade",chickweed,5 (Herbicidal rate of 90% or more (almost completely withered))
same,"R: persian speedwell, herbicidal effect grade",persian speedwell [2],3 (Herbicidal rate of 40% or more and less than 70%)
same,"F: southern crabgrass, herbicidal effect grade",southern crabgrass [3],0 (Herbicidal rate of 5% or less (almost no effect))
same,herbicidal effect on green foxtail (G),green foxtail [4],4 (Herbicidal rate of 70% or more and less than 90%)
same,"L: windgrass, herbicidal effect grade",windgrass [5],1 (Herbicidal rate of 5% or more and less than 20%)
same,herbicidal effect on rice flat sedge (E),rice flat sedge,3 (Herbicidal rate of 40% or more and less than 70%)
same,herbicidal effect on Italian ryegrass (K),Italian ryegrass [6],3 (Herbicidal rate of 40% or more and less than 70%)
same,herbicidal effect on lambsquarters (O),lambsquarters [7],3 (Herbicidal rate of 40% or more and less than 70%)
same,"I: wild oat, herbicidal effect grade",wild oat [8],0 (Herbicidal rate of 5% or less (almost no effect))
same,"Q: false cleavers, herbicidal effect grade",false cleavers [9],0 (Herbicidal rate of 5% or less (almost no effect))
same,herbicidal effect on Chinese sprangletop (D),Chinese sprangletop,2 (Herbicidal rate of 20% or more and less than 40%)
same,herbicidal effect on wild oat (I),wild oat [10],4 (Herbicidal rate of 70% or more and less than 90%)
same,"N: redroot pigweed, herbicidal effect grade",redroot pigweed,0 (Herbicidal rate of 5% or less (almost no effect))
same,herbicidal effect on false cleavers (Q),false cleavers [11],0 (Herbicidal rate of 5% or less (almost no effect))
same,herbicidal effect on persian speedwell (R),persian speedwell [12],4 (Herbicidal rate of 70% or more and less than 90%)
same,herbicidal effect on blackgrass (J),blackgrass [13],4 (Herbicidal rate of 70% or more and less than 90%)
same,"M: velvetleaf, herbicidal effect grade",velvetleaf [14],0 (Herbicidal rate of 5% or less (almost no effect))
same,"J: blackgrass, herbicidal effect grade",blackgrass [15],0 (Herbicidal rate of 5% or less (almost no effect))
same,"H: barnyard grass, herbicidal effect grade",barnyard grass [16],0 (Herbicidal rate of 5% or less (almost no effect))
same,"K: Italian ryegrass, herbicidal effect grade",Italian ryegrass [17],1 (Herbicidal rate of 5% or more and less than 20%)
same,herbicidal effect on windgrass (L),windgrass [18],3 (Herbicidal rate of 40% or more and less than 70%)
same,"G: green foxtail, herbicidal effect grade",green foxtail [19],0 (Herbicidal rate of 5% or less (almost no effect))
same,herbicidal effect on southern crabgrass (F),southern crabgrass [20],3 (Herbicidal rate of 40% or more and less than 70%)
same,herbicidal effect on velvetleaf (M),velvetleaf [21],0 (Herbicidal rate of 5% or less (almost no effect))
same,herbicidal effect on barnyard grass (H),barnyard grass [22],5 (Herbicidal rate of 90% or more (almost completely withered))
same,herbicidal effect on barnyard grass (H),barnyard grass [23],4 (Herbicidal rate of 70% or more and less than 90%)
